Results from patent publication US7638509B2, “Diene compounds and formulations” (priority 2003, dated 2009).

Molecular target: T1, progesterone receptor (PR) (Homo sapiens, UniProt P06401)
T1 construct: expressed in transfected cells; host or cells: PC-3
T1 sequence (P06401 1-933): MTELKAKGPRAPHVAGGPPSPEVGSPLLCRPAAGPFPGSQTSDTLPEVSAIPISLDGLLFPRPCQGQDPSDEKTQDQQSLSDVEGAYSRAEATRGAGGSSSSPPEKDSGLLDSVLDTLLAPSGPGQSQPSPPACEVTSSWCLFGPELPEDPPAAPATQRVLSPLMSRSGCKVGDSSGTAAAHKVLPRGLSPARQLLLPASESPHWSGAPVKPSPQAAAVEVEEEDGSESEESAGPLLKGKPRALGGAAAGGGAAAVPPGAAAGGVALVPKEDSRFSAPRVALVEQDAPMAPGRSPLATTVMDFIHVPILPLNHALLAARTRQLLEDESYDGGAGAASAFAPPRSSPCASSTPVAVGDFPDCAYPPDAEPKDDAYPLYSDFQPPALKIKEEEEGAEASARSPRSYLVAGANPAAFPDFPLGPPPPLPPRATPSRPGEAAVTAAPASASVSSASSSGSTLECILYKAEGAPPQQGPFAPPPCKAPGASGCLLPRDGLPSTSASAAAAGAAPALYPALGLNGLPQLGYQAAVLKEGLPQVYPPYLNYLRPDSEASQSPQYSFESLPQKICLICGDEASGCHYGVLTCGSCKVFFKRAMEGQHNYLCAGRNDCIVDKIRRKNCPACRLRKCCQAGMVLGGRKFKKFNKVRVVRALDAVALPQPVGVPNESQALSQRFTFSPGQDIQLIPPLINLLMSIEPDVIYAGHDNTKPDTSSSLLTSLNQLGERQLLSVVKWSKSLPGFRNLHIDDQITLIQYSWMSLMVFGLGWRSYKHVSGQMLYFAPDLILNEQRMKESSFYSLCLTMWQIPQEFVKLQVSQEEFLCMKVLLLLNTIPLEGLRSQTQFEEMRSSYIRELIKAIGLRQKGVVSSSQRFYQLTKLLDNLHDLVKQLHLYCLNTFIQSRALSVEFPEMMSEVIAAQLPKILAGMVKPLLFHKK
Experiment: Steroid hormone specificity, PR/MMTV-Luc in PC-3 cells
Type: cell-based
Conditions: PC-3, PR/MMTV-Luc, ADEK at 0.01 mM, 0.1 mM and 1.0 mM, 24 h
Protocol: Cell Culture, Transfection, and Reporter Gene Assay. The human prostate cancer cell lines, LNCaP, PC-3, and DU145, and non-prostate cancer cell line COS-1 were maintained in RPMI or Dulbecco's modified Eagle's medium (DMEM) (Life Technologies) supplemented with 10% fetal bovine serum (FBS). Transfections and luciferase (Luc) assays were performed as previously described (Miyamoto, H., Yeh, S., Wilding, G. & Chang, C. (1998) Proc. Natl. Acad. Sci. USA 95, 7379-7384; Miyamoto, H., Rahman, M., Takatera, H., Kang, H.-Y., Yeh, S., Chang, H.-C., Nishimura, K., Fujimoto, N. & Chang, C. (2002) J. Biol. Chem. 277, 4609-4617). Briefly, cells seeded to reach a density of 50-60% confluence in 12 well tissue culture plates were transfected with 1.5 μg of DNA according to “SuperFect transfection” instructions (Qiagen). […] The Luc activity was determined using a Dual-Luciferase Reporter Assay System (Promega) and luminometer.
Steroid Hormone Specificity of ADEK. To characterize the steroid hormone activity of ADEK, PC-3 cells were transfected with steroid receptor/reporter (progesterone receptor (PR)/MMTV-Luc, glucocorticoid receptor (GR)/MMTV-Luc, or estrogen receptor (ER)/ERE-Luc) and analyzed for expression of the Luc reporter gene. […] The Luc activity was measured relative to that of ETOH treatment (set as 1-fold). […]

**Q.** Which “progesterone activity (in words)” value does the source give for `CC(=O)O[C@H]1C=C[C@@]2(C)C(=CC[C@@H]3[C@@H]2CC[C@@]2(C)[C@H]3CCC23OCCO3)C1` [ADEK, 3β-acetoxy-17,17-ethylenedioxyandrosta-1,5-diene] here?
**A.** The value was “no significant”.
